Here are results for four molecules from patent publication US4948880A, “Anthracycline derivatives having cytostatic activity” (Behringwerke Aktiengesellschaft, priority 1986, dated 1990).

For data set [1] the following is noted: light / sunlight; cited from earlier work.
Data set [2] concerns mouse L1210 leukemia cells. The data set can be described thus: Formation of L1210 leukemia cell colonies in soft agar (cytostatic activity). It counts as cell-based. As to conditions: Mus musculus, colonies > 60 μm, % of untreated control. On the procedure:
The cytostatic activity of the compounds according to the invention have been tested using mouse L1210 leukemia cells. Use was made for this by the formation of L1210 leukemia cell colonies in agar plates. This method is used to detect the effect of the test substances on the growth behavior of the cells over 1 hour or over several generations. In this connection, with a cell cycle time of 10-12 hours, about 14 consecutive generations are observed in a 7-day duration of the test. In this test, the substances having cytostatic activity according to the invention bring about a reduction, compared with an untreated control sample, in the number of colonies which is to be observed.
Procedure for Determining the Formation of L1210 Leukemia Cell Colonies in Soft Agar
500 leukemia cells per plate were incubated with various concentrations of the test substance at 37° C. for 1 hour. These cells were then washed twice with McCoy 5A medium, 0.3% agar was added, and finally the mixture was poured into Petri dishes. Controls were incubated only with fresh medium. In place of the incubation for one hour, in some cases various concentrations and test substances were mixed with the upper agar layer in order in this way to achieve continuous exposure of the cells throughout the incubation time. After the agar had solidified, the plates were incubated in an incubator at 37° C. for 7 days (5% by volume CO2, 95% relative atmospheric humidity). Thereafter the number of colonies with a diameter of more than 60 μm which had formed was counted. The results have been stated as the number of colonies in treated agar plates as a percentage of the untreated control. The dose-effect graph obtained in this way was used to determine the IC50 as a measure of the activity of the substance. The results for the compounds described here are compiled in Table 1 which follows, comparing with adriamycin.

Converted amounts (≈) assume the structure as drawn. Like-named read-outs stand apart in the source and are kept apart here.

For the molecule `COc1cccc2c1C(=O)c1c(O)c3c(c(O)c1C2=O)C[C@@](O)(C(=O)CO)C[C@@H]3O[C@H]1C[C@H](N)[C@H](O)[C@H](C)O1` [Adriamycin, 7-O-α-L-daunosaminyl-adriamycinone, reference compound], in data set [1], the “photolytic decomposition on exposure to light” value (“photolytic decomposition” below) was “photolytically decomposed on exposure to light”. For the same molecule, the IC50 was found to be 0.02 µg/mL (≈ 0.0368 µM) in data set [2] (L1210, 168 h, read-out: Continuous incubation IC50, continuous exposure, test substance mixed with upper agar layer, 7 days, 37° C.) and 0.04 µg/mL (≈ 0.0736 µM) in data set [2] (L1210, read-out: 1 h incubation IC50, 1 hour incubation with test substance at 37° C., then washed, 7 days in agar).

As for `CC[C@@]1(O)C[C@H](O[C@H]2C[C@H](N(C)C)[C@H](O[C@H]3C[C@H](O)[C@H](O[C@H]4CCC(=O)[C@H](C)O4)[C@H](C)O3)[C@H](C)O2)c2c(cc3c(c2O)C(=O)c2c(O)cccc2C3=O)[C@H]1C(=O)OC` [aclacinomycin A], the “photolytic decomposition” value in data set [1] is given as “undergoes photolytic decomposition to a small extent”.

As for `CN[C@H]1C[C@H](O[C@H]2C[C@](O)(C(C)O)Cc3c(O)c4c(c(O)c32)C(=O)c2c(OC)cccc2C4=O)O[C@@H](C)[C@H]1O` (stereo partly shown) [compound 32, 3'-N-Methyl-13-dihydrodaunorubicin], the IC50 in data set [2] (L1210, 168 h, continuous exposure, test substance mixed with upper agar layer, 7 days, 37° C., read-out: Continuous incubation IC50) turned out to be 0.5 µg/mL (≈ 0.92 µM); in data set [2] (L1210, 1 hour incubation with test substance at 37° C., then washed, 7 days in agar, read-out: 1 h incubation IC50), 1.3 µg/mL (≈ 2.39 µM).

In the case of `COc1cccc2c1C(=O)c1c(O)c3c(c(O)c1C2=O)C[C@@](O)(C(C)=O)C[C@@H]3O[C@H]1C[C@H](N)[C@H](O)[C@H](C)O1` [daunomycin, 7-O-α-L-daunosaminyl-daunomycinone], the “photolytic decomposition” value in data set [1] is given as “photolytically decomposed on exposure to light”.
